One data set concerns HT-29. The data set can be described thus: Cell growth inhibition assay (resazurin, 48 h). It counts as cell-based, human. The note with it: HT-29, 48 h. As for the experimental part:
RPMI 8226 (CCL-155), HT-29 (HTB-38), and B16-F10 (CRL-6475) cells were purchased from ATCC. RPMI 8226 cells were maintained in RPMI 1640 media supplemented with 10% (v/v) FBS, 2 mM L-glutamine, 1 mM sodium pyruvate and Penicillin/Streptomycin at 100 IU/ml and 100 μg/ml, respectively. HT-29 cells were maintained in McCoys 5A supplemented with 10% (v/v) FBS, 2 mM L-glutamine, 1 mM sodium pyruvate, 1% (v/v) non-essential amino acids, 10 mM HEPES and Penicillin/Streptomycin at 100 IU/ml and 100 μg/ml, respectively. B16-F10 cells were maintained in DMEM supplemented with 10% (v/v) FBS, 2 mM L-glutamine, 10 mM HEPES and Penicillin/Streptomycin at 100 IU/ml and 100 μg/ml, respectively.
RPMI 8226 cells were seeded at 2×10^4 cells/well in 90 μl RPMI media containing 10% (v/v) FBS or 1% (v/v) FBS into 96 well black-walled, clear-bottom tissue culture plates. […] Formulae II-16, II-17 and Formula II-18 were serially diluted in media containing 1% or 10% FBS and added in triplicate to the test wells. […] The final concentration of Formula II-18 ranged from 2 μM to 630 pM.
(The colour change of resazurin is a common sign of viable cells or microbes.)

In another data set the test system is MDA-MB-231. The data set can be described thus: Cell growth inhibition assay (resazurin, 48 h). As to conditions: MDA-MB-231, 48 h. It counts as cell-based, human.
A further data set deals with MIA PaCa-2. The data set can be described thus: Cell growth inhibition assay (resazurin, 48 h). The data set is classed as cell-based. The note with it: Homo sapiens, MIA PaCa-2, 48 h.
Data set [1] addresses T1, human erythrocyte 20S proteasomes, chymotrypsin-like activity (Homo sapiens, UniProt P28074).
T1 construct: Human erythrocyte 20S proteasomes were obtained from BIOMOL (Cat. # SE-221); purchased BIOMOL SE-221; host or cells: human erythrocytes
Briefly: Chymotrypsin-like activity of human erythrocyte 20S proteasomes. The data set is classed as biochemical.

The target of data set [2] is T2, human erythrocyte proteasomes, Trypsin-like activity (Homo sapiens, UniProt Q99436).
T2 construct: from tissue; host or cells: human erythrocytes
Briefly: Trypsin-like activity of human erythrocyte proteasomes. The data set is classed as biochemical.

A further data set concerns the target Cathepsin B (Homo sapiens, UniProt P07858). The data set can be described thus: Inhibition of Cathepsin B. It counts as biochemical.
The target in data set [3] is T3, proteasome chymotrypsin-like activity in packed whole blood lysate (Mus musculus, UniProt O55234).
T3 construct: The supernatant (Packed Whole Blood Lysate, PWBL) was transferred to a fresh tube; from tissue; host or cells: packed whole blood cells of Swiss-Webster mice (lysate)
Briefly: Proteasome activity in packed whole blood lysate (PWBL) of treated mice. It counts as in vivo. As to conditions: 90 minutes. As for the experimental part: In brief, frozen whole blood samples were thawed on ice for one hour, and resuspended in 700 μL of ice cold 5 mM EDTA, pH 8.0 in order to lyse the cells by hypotonic shock. This represents approximately 2-3 times the volume of the packed whole blood cells. Lysis was allowed to proceed for one hour, and the cellular debris was removed by centrifugation at 14,000×g for 10 minutes. The supernatant (Packed Whole Blood Lysate, PWBL) was transferred to a fresh tube, and the pellet discarded. Protein concentration of the PWBL was determined by BCA assay (Pierce) using BSA as a standard.
Proteasome activity was determined by measuring the hydrolysis of a fluorogenic substrate specific for the chymotrypsin-like activity of proteasomes (suc-LLVY-AMC, Bachem Cat. I-1395). […] Hydrolysis of the substrate results in the release of free AMC, which was measured fluorometrically by using λex=390 nm and λem=460 nm. The rate of hydrolysis in this system is linear for at least one hour. The hydrolysis rate of each sample is then normalized to relative fluorescent units per milligram of protein (RFU/mg).
The vehicle control consisted of 2% DMSO in 10% solutol. […] Packed whole blood cells were collected by centrifugation, washed with PBS, and re-centrifuged. All samples were stored at −80° C. prior to the evaluation of the proteasome activity. […]

Another data set has as its system PC-3 cells. The data set can be described thus: PARP and Pro-Caspase 3 cleavage in PC-3 cells (western blot). The data set is classed as cell-based, human. The note with it: 100 nM; 0, 8 or 24 hours. As for the experimental part:
Total protein lysates were made and 20 μg of the lysates were then resolved under reducing/denaturing conditions and blotted onto nitrocellulose. The blots were then probed with anti-PARP or anti-caspase 3 antibodies followed by stripping and reprobing with an anti-actin antibody.
(A western blot detects proteins with antibodies after separation by electrophoresis.)

A further data set has as its system tumor cell lines. The data set can be described thus: Growth inhibition / cytotoxicity, summary over tumor cell lines. The data set is classed as cell-based.
In the next data set the test system is RAW264.7 cells. Briefly: cells. The note with it: Mus musculus.
The next data set deals with PC-3. Briefly: Cell growth inhibition assay (resazurin, 48 h).

Broadly, the EC50 is the midpoint of the concentration-response curve. As a reminder, the viability is a read-out of living cells in per cent, often relative to untreated cells.

SMILES strings stand for the structures. Where “and” joins values, the source holds several entries; their conditions need not be identical. Equal values may be shown once. Read-outs that look alike come from different tables or passages of the source.

T3 sequence (O55234 60-264): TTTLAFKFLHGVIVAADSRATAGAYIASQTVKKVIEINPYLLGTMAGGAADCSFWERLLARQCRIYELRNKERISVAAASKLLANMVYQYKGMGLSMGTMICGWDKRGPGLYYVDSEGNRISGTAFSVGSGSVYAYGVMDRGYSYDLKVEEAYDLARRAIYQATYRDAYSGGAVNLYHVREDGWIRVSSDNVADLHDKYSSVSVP

For the compound `C[C@@]12OC(=O)[C@]1([C@@H](O)[C@@H]1C=CCCC1)NC(=O)[C@@H]2CCCl` [Formula II-16, Salinosporamide A], the EC50 was 40 ± 26 nM with HT-29; 47 nM in the data set on HT-29 (Homo sapiens); 67 nM with MDA-MB-231 (Homo sapiens); 87 ± 40 nM in the data set with MDA-MB-231; 46 nM in the data set with MIA PaCa-2; ~3 nM and ~4 nM in data set [1]. For the same compound, the EC50 is approximately 9 nM in data set [2]; more than 200000 nM at Cathepsin B; 10 to 37 nM in the data set on tumor cell lines (RPMI 8226, PC-3, DU 145, 48 hour, read-out: EC50 values against RPMI 8226 and the prostate cell lines, range); 10 to 200 nM with tumor cell lines (read-out: EC50 values for cytotoxicity, range); less than 4 nM in the data set on RAW264.7 cells (RAW264.7, read-out: EC50, inhibition of LeTx-mediated cytotoxicity); 64 ± 26 nM in the data set on PC-3 (PC-3, 48 h). Besides, the “proteasomal activity in PWBL after oral administration” value in [3] is given as “active upon oral administration”. The “cleavage of PARP” value in the data set on PC-3 cells is reported as “cleavage of PARP is noticeable at 24 hours”. The viability at […] in the data set on RAW264.7 cells (RAW264.7, read-out: cell-viability, compound + LeTx) was determined as 82%. The “% cytotoxicity” value in the data set with PC-3 (PC-3) is 88% and 89%.

Source of the values: patent US7579371B2, “Methods of using [3.2.0] heterocyclic compounds and analogs thereof” (Nereus Pharmaceuticals, Inc., priority 2004, dated 2009).
